Experimental data published in patent US11492386B2, “Parathyroid hormone-anti-RANKL antibody fusion compounds” (Eli Lilly and Company, priority 2016, dated 2022).

Test system: orchidectomized murine model
Assay: In vivo efficacy (BMD and BMC by qCT) in orchidectomized murine model
Set-up: species or system mice
Conditions: 5 μg/kg daily sc, two weeks
Method: Effects on bone mass density and bone mineral content, in vivo, are assessed using an orchidectomized murine model. Sixteen week old […] C57/B6 mice (Harlan, Indianapolis, Ind.) are orchidectomized (or vehicle control group, n=6) and maintained on a 12 hour light/dark cycle at 22° C. with ad lib access to food (TD 2014 with 0.72% Ca and 0.61% P, Vit. D 0.99 IU/g, Teklad, Madison, Wis.) and water. Osteopenia is established in the orchidectomized mice by allowing mice to lose bone mass for a six-week period.
Following a six-week osteopenia-establishing period, mice are divided into treatment groups and a vehicle PBS control group. […]
Bone mass density (BMD) of distal femur and bone mineral content (BMC) of lumbar vertebra are assessed by quantitative computed tomography (qCT) using Aloka LaTheta LTC-100 model CT scanner. […]

SMILES: CC[C@H](C)[C@H](NC(=O)[C@H](CCC(=O)O)NC(=O)[C@H](CO)NC(=O)[C@@H](NC(=O)[C@@H](N)CO)C(C)C)C(=O)N[C@@H](CCC(N)=O)C(=O)N[C@@H](CC(C)C)C(=O)N[C@@H](CCSC)C(=O)N[C@@H](Cc1c[nH]cn1)C(=O)N[C@@H](CC(N)=O)C(=O)N[C@@H](CC(C)C)C(=O)NCC(=O)N[C@@H](CCCCN)C(=O)N[C@@H](Cc1c[nH]cn1)C(=O)N[C@@H](CC(C)C)C(=O)N[C@@H](CC(N)=O)C(=O)N[C@@H](CO)C(=O)N[C@@H](CCSC)C(=O)N[C@@H](CCC(=O)O)C(=O)N[C@@H](CCCNC(=N)N)C(=O)N[C@H](C(=O)N[C@@H](CCC(=O)O)C(=O)N[C@@H](Cc1c[nH]c2ccccc12)C(=O)N[C@@H](CC(C)C)C(=O)N[C@@H](CCCNC(=N)N)C(=O)N[C@@H](CCCCN)C(=O)N[C@@H](CCCCN)C(=O)N[C@@H](CC(C)C)C(=O)N[C@@H](CCC(N)=O)C(=O)N[C@@H](CC(=O)O)C(=O)N[C@H](C(=O)N[C@@H](Cc1c[nH]cn1)C(=O)N[C@@H](CC(N)=O)C(=O)N[C@@H](Cc1ccccc1)C(=O)N[C@H](C(=O)N[C@@H](C)C(=O)N[C@@H](CC(C)C)C(=O)NCC(=O)O)C(C)C)C(C)C)C(C)C [PTH Peptide, reference compound]
- Distal-Femur (% BMD change): 16%
- Lumbar Vertebra (% BMC change): 1%
